For assay [1], the system named is isolated rat brain sodium channels (site 5). The following applies: read-out: Ki, competitive displacement assay, synaptosomal binding.
For assay [2], the system named is sodium channels. The experiment in a line: Patch clamp single sodium channel currents in membrane patches. It counts as cell-based. As to conditions: 100 nM, n=6, FIG. 2C, 2D. How it is done:
FIG. 2A-D illustrates single sodium channel currents in patch clamp sodium channels during successive command depolarizations to −10 mV from a command potential of −100 mV in the same membrane patch before (2A) and after (2B) exposure to β-naphthoyl-PbTx-3 (100 nM, n=6). […] The average area under the β-naphthoyl-PbTx-3 curve was 71.8±18.3% less than that of PbTx-3.
FIG. 3A-E illustrates the steady state currents in four different membrane patches at a steady state command voltage of −50 mV. 3A are control traces preceeding the test with PbTx-3, and are representative of control recordings observed in all four patches during 7.2 s of continuous observation. 3B are traces for membrane patches exposed to PbTx-3 (100 nM, […]). 3C are traces for membrane patches exposed to benzoyl-PbTx-3 (100 nM, n=6). 3D are traces for membrane patches exposed to α-naphthoyl-PbTx-3 (100 nM, n=6). 3E are traces for membrane patches exposed to β-naphthoyl-PbTx-3 (100 nM, n=6). The experimental recordings are representative of 7.2 s of continuous observation in PbTx-3 or the particular derivative.

For assay [3], the system named is isolated rat brain sodium channels (site 5). As to conditions: Purkerson-Parker, et al., 2000; cited from earlier work.
The subject of assay [4] is sodium channels. The following applies: steady state; Purkerson-Parker, et al., 2000; cited from earlier work.
Setting [5] is: isolated rat brain sodium channels, FIG. 1.

Like-named read-outs stand apart in the source and are kept apart here.

Consider `C=C(CO)CC1CC(O)C2(C)OC3CC4OC5CC6(C)OC7(C)CCC8OC9CC%10(C)OC%11C(C)=CC(=O)OC%11CC%10OC9CC(C)C8OC7CC6OC5(C)CC=CC4OC3CC2O1` (centres unmarked) [PbTx-3, reference compound], for which the Ki in assay [1] stood at 3 nM.
Consider Benzoyl-PbTx-3, for which the Ki in assay [1] (setting [5]) stood at 0.2 nM.
The same measure, in the same setting: next, α-Naphthoyl-PbTx-3: 4.68 nM.
For β-Naphthoyl-PbTx-3, in assay [1] (setting [5]), the Ki was found to be 1.06 nM. The “average area under the ensemble average curve, less than that of PbTx-3” value in the assay on sodium channels [2] (depolarizations to −10 mV from command potential of −100 mV) is 71.8±18.3%. In the assay on sodium channels [2] (depolarizations to −10 mV from −100 mV), the “peak sodium current (ensemble averages)” value was “reduction in peak sodium current”. In addition, the “displacement of native toxin from binding site” value in assay [3] is “displaces the native toxin from its binding site”. In the assay on sodium channels [4], the “opening of sodium channels” value was “does not elicit opening of sodium channels in steady state”.
